Results reported in patent US9409870B2, “Compounds” (CHIESI FARMACEUTICI S.p.A., priority 2014, dated 2016).

Biological target: T1, human neutrophil elastase (HNE) (Homo sapiens, UniProt P08246)
T1 construct: purchased Sigma E8140
T1 sequence (P08246 30-247 limits assumed): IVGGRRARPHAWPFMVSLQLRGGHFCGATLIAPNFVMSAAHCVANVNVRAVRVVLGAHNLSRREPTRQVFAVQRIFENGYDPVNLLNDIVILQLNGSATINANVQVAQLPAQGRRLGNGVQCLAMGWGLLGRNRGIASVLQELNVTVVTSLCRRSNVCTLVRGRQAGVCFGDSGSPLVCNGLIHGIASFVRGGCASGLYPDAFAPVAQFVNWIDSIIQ
Test: HNE enzyme activity assay (fluorogenic peptide substrate MeOSuc-Ala-Ala-Pro-Val-AMC)
Type: biochemical
Settings: human leukocyte elastase 0.00072 U/mL, substrate 100 μM, 25° C., 30 minutes, pH 7.5; at least two separate experiments; read-out: FINE inhibition (HNE enzyme inhibition, IC50 values)
Experimental: Compounds of this invention were tested for potency in a human neutrophil elastase (HNE) enzyme activity assay.
Assays were performed in 96-well plates in a total assay volume of 100 μL. The final concentration of elastase enzyme (human leukocyte elastase, Sigma E8140) was 0.00072 U/mL. The peptide substrate (MeOSuc-Ala-Ala-Pro-Val-AMC, Calbiochem #324740) was used at a final concentration of 100 μM. The final concentration of DMSO was 1% in the assay buffer (0.05M Tris.HCl, 0.1M NaCl, 0.1M CaCl2, 0.0005% brij-35, pH 7.5). The enzymatic reaction was started by addition of the enzyme and incubated at 25° C. for 30 minutes. After incubation, the reaction was stopped by addition of soybean trypsin inhibitor (Sigma T9003) at a final concentration of 50 μg/well. Fluorescence was measured using a Molecular Devices fluorescence plate reader using 380 nm excitation and 460 nm emission wavelengths.
A dose response to each compound was performed and the effect of compound in each experiment was expressed as a percentage inhibition of the control enzyme fluorescence. Dose response curves were plotted and compound potency (IC50) was determined. Compounds were tested in at least two separate experiments.

| SMILES | IC50 |
| --- | --- |
| Cc1c(-c2ccnn2-c2ccc(C#N)cc2)[nH]c(=O)n1-c1cccc(C(F)(F)F)c1 [Example 1, 4-(5-{5-Methyl-2-oxo-1-[3-(trifluoromethyl)phenyl]-2,3-dihydro-1H-imidazol-4-yl}-1H-pyrazol-1-yl)benzonitrile] | 10 to 50 nM |
| Cc1c(-c2ccnn2-c2ccc(C#N)cc2)n(CCCS(C)(=O)=O)c(=O)n1-c1cccc(C(F)(F)F)c1 [Example 2, 4-(5-{5-Methyl-3-[3-(methylsulfonyl)propyl]-2-oxo-1-[3-(trifluoromethyl)phenyl]-2,3-dihydro-1H-imidazol-4-yl}-1H-pyrazol-1-yl)benzonitrile] | 1 to 10 nM |
| Cc1c(-c2ccnn2-c2ccc(C#N)cc2)n(C)c(=O)n1-c1cccc(C(F)(F)F)c1 [Example 3, 4-(5-{3,5-Dimethyl-2-oxo-1-[3-(trifluoromethyl)phenyl]-2,3-dihydro-1H-imidazol-4-yl}-1H-pyrazol-1-yl)benzonitrile] | 1 to 10 nM |
| CCOC(=O)n1c(-c2ccnn2-c2ccc(C#N)cc2)c(C)n(-c2cccc(C(F)(F)F)c2)c1=O [Example 4, Ethyl-5-[1-(4-cyanophenyl)-1H-pyrazol-5-yl]-4-methyl-2-oxo-3-[3-(trifluoromethyl)phenyl]-2,3-dihydro-1H-imidazole-1-carboxylate] | < 1 nM |
| CC(=O)n1c(-c2ccnn2-c2ccc(C#N)cc2)c(C)n(-c2cccc(C(F)(F)F)c2)c1=O [Example 5, 4-(5-{3-Acetyl-5-methyl-2-oxo-1-[3-(trifluoromethyl)phenyl]-2,3-dihydro-1H-imidazol-4-yl}-1H-pyrazol-1-yl)benzonitrile] | 1 to 10 nM |
| CCNC(=O)n1c(-c2ccnn2-c2ccc(C#N)cc2)c(C)n(-c2cccc(C(F)(F)F)c2)c1=O [Example 6, 5-[1-(4-Cyanophenyl)-1H-pyrazol-5-yl]-N-ethyl-4-methyl-2-oxo-3-[3-(trifluoromethyl)phenyl]-2,3-dihydro-1H-imidazole-1-carboxamide] | < 1 nM |
| Cc1c(-c2ccnn2-c2ccc(C#N)cc2)n(C(=O)NCCO)c(=O)n1-c1cccc(C(F)(F)F)c1 [Example 7, 5-[1-(4-Cyanophenyl)-1H-pyrazol-5-yl]-N-(2-hydroxyethyl)-4-methyl-2-oxo-3-[3-(trifluoromethyl)phenyl]-2,3-dihydro-1H-imidazole-1-carboxamide] | 1 to 10 nM |
| Cc1c(-c2ccnn2-c2ccc(C#N)cc2)n(C(=O)NCCCO)c(=O)n1-c1cccc(C(F)(F)F)c1 [Example 8, 5-[1-(4-Cyanophenyl)-1H-pyrazol-5-yl]-N-(3-hydroxypropyl)-4-methyl-2-oxo-3-[3-(trifluoromethyl)phenyl]-2,3-dihydro-1H-imidazole-1-carboxamide] | < 1 nM |
| Cc1c(-c2ccnn2-c2ccc(C#N)cc2)n(C(=O)NCCCN(C)C)c(=O)n1-c1cccc(C(F)(F)F)c1 [Example 9, 5-[1-(4-Cyanophenyl)-1H-pyrazol-5-yl]-N-[3-(dimethylamino)propyl]-4-methyl-2-oxo-3-[3-(trifluoromethyl)phenyl]-2,3-dihydro-1H-imidazole-1-carboxamide] | 1 to 10 nM |
| CCCC(=O)n1c(-c2ccnn2-c2ccc(C#N)cc2)c(C)n(-c2cccc(C(F)(F)F)c2)c1=O [Example 10, 4-(5-{3-Butanoyl-5-methyl-2-oxo-1-[3-(trifluoromethyl)phenyl]-2,3-dihydro-1H-imidazol-4-yl}-1H-pyrazol-1-yl)benzonitrile] | < 1 nM |
| COCCNC(=O)n1c(-c2ccnn2-c2ccc(C#N)cc2)c(C)n(-c2cccc(C(F)(F)F)c2)c1=O [Example 11, 5-[1-(4-Cyanophenyl)-1H-pyrazol-5-yl]-N-(2-methoxyethyl)-4-methyl-2-oxo-3-[3-(trifluoromethyl)phenyl]-2,3-dihydro-1H-imidazole-1-carboxamide] | < 1 nM |
| Cc1c(-c2ccnn2-c2ccc(C#N)cc2)n(C(=O)NCCN(C)C)c(=O)n1-c1cccc(C(F)(F)F)c1 [Example 12, 5-[1-(4-Cyanophenyl)-1H-pyrazol-5-yl]-N-[2-(dimethylamino)ethyl]-4-methyl-2-oxo-3-[3-(trifluoromethyl)phenyl]-2,3-dihydro-1H-imidazole-1-carboxamide] | 1 to 10 nM |
| Cc1c(-c2ccnn2-c2ccc(C#N)cc2)n(C(=O)NCCS(C)(=O)=O)c(=O)n1-c1cccc(C(F)(F)F)c1 [Example 13, 5-[1-(4-Cyanophenyl)-1H-pyrazol-5-yl]-4-methyl-N-[2-(methylsulfonyl)ethyl]-2-oxo-3-[3-(trifluoromethyl)phenyl]-2,3-dihydro-1H-imidazole-1-carboxamide] | < 1 nM |
| Cc1c(-c2ccnn2-c2ccc(C#N)cc2)n(C(=O)NC2CCOC2)c(=O)n1-c1cccc(C(F)(F)F)c1 (stereo not drawn) [Example 14, 5-[1-(4-Cyanophenyl)-1H-pyrazol-5-yl]-4-methyl-2-oxo-N-(tetrahydrofuran-3-yl)-3-[3-(trifluoromethyl)phenyl]-2,3-dihydro-1H-imidazole-1-carboxamide] | < 1 nM |
| Cc1c(-c2ccnn2-c2ccc(C#N)cc2)n(C(=O)N[C@H]2CCOC2)c(=O)n1-c1cccc(C(F)(F)F)c1 [Example 15, 5-[1-(4-Cyanophenyl)-1H-pyrazol-5-yl]-4-methyl-2-oxo-N-[(3S)-tetrahydrfuran-3-yl]-3-[3-(trifluoromethyl)phenyl]-2,3-dihydro-1H-imidazole-1-carboxamide] | < 1 nM |

The remaining lines, values ahead:

| IC50 | SMILES |
| --- | --- |
| < 1 nM | Cc1c(-c2ccnn2-c2ccc(C#N)cc2)n(C(=O)N[C@@H]2COC[C@H]2O)c(=O)n1-c1cccc(C(F)(F)F)c1 (racemic) [Example 48, Mixture of 5-[2-(4-Cyano-phenyl)-2H-pyrazol-3-yl]-4-methyl-2-oxo-3-(3-trifluoromethyl-phenyl)-2,3-dihydro-imidazole-1-carboxylic acid ((3R,4S)-4-hydroxy-tetrahydro-furan-3-yl)-amide and 5-[2-(4-Cyano-phenyl)-2H-pyrazol-3-yl]-4-methyl-2-oxo-3-(3-trifluoromethyl-phenyl)-2,3-dihydro-imidazole-1-carboxylic acid ((3S,4R)-4-hydroxy-tetrahydro-furan-3-yl)-amide] |
| < 1 nM | Cc1c(-c2ccnn2-c2ccc(C#N)cc2)n(C(=O)N[C@@H]2CCOC2)c(=O)n1-c1cccc(C(F)(F)F)c1 [Example 16, 5-[1-(4-Cyanophenyl)-1H-pyrazol-5-yl]-4-methyl-2-oxo-N-[(3R)-tetrahydrofuran-3-yl]-3-[3-(trifluoromethyl)phenyl]-2,3-dihydro-1H-imidazole-1-carboxamide] |
| < 1 nM | Cc1c(-c2ccnn2-c2ccc(C#N)cc2)n(C(=O)NCc2ccn(C)n2)c(=O)n1-c1cccc(C(F)(F)F)c1 [Example 17, 5-[1-(4-Cyanophenyl)-1H-pyrazol-5-yl]-4-methyl-N-[(1-methyl-1H-pyrazol-3-yl)methyl]-2-oxo-3-[3-(trifluoromethyl)phenyl]-2,3-dihydro-1H-imidazole-1-carboxamide] |
| < 1 nM | COC(=O)n1c(-c2ccnn2-c2ccc(C#N)cc2)c(C)n(-c2cccc(C(F)(F)F)c2)c1=O [Example 18, Methyl-5-[1-(4-cyanophenyl)-1H-pyrazol-5-yl]-4-methyl-2-oxo-3-[3-(trifluoromethyl)phenyl]-2,3-dihydro-1H-imidazole-1-carboxylate] |
| < 1 nM | CCCCC(=O)n1c(-c2ccnn2-c2ccc(C#N)cc2)c(C)n(-c2cccc(C(F)(F)F)c2)c1=O [Example 19, 4-(5-{5-Methyl-2-oxo-3-pentanoyl-1-[3-(trifluoromethyl)phenyl]-2,3-dihydro-1H-imidazol-4-yl}-1H-pyrazol-1-yl)benzonitrile] |
| 10 to 50 nM | Cc1c(-c2ccnn2-c2ccc(C#N)cc2)n(CC(=O)OC(C)(C)C)c(=O)n1-c1cccc(C(F)(F)F)c1 [Example 20, tert-Butyl-{5-[1-(4-cyanophenyl)-1H-pyrazol-5-yl]-4-methyl-2-oxo-3-[3-(trifluoromethyl)phenyl]-2,3-dihydro-1H-imidazol-1-yl}acetate] |
| 10 to 50 nM | CCN(C)C(=O)n1c(-c2ccnn2-c2ccc(C#N)cc2)c(C)n(-c2cccc(C(F)(F)F)c2)c1=O [Example 21, 5-[1-(4-Cyanophenyl)-1H-pyrazol-5-yl]-N-ethyl-N,4-dimethyl-2-oxo-3-[3-(trifluoromethyl)phenyl]-2,3-dihydro-1H-imidazole-1-carboxamide] |
| 10 to 50 nM | Cc1c(-c2ccnn2-c2ccc(C#N)cc2)n(CC(=O)O)c(=O)n1-c1cccc(C(F)(F)F)c1 [Example 22, {5-[1-(4-Cyanophenyl)-1H-pyrazol-5-yl]-4-methyl-2-oxo-3-[3-(trifluoromethyl)phenyl]-2,3-dihydro-1H-imidazol-1-yl}acetic acid] |
| 10 to 50 nM | CNC(=O)Cn1c(-c2ccnn2-c2ccc(C#N)cc2)c(C)n(-c2cccc(C(F)(F)F)c2)c1=O [Example 23, 2-{5-[1-(4-Cyanophenyl)-1H-pyrazol-5-yl]-4-methyl-2-oxo-3-[3-(trifluoromethyl)phenyl]-2,3-dihydro-1H-imidazol-1-yl}-N-methylacetamide] |
